Test results reported in PubChem BioAssay AID248 (DTP/NCI, 2004).
Values joined by “and” are separate entries in the source; they are usually repeats but may differ in a detail not shown here. Equal entries are not always repeated. Toxic doses and inconclusive results are not listed. No stated cut-off is given here; in the data, active means T/C of 150% or more; inactive means T/C below 125%.

System: L1210 leukemia ip in BDF1 mice, survival T/C
Test: NCI In Vivo Anticancer Drug Screen. Data for tumor model L1210 Leukemia (intraperitoneal) in B6D2F1 (BDF1) mice
Settings: endpoint: mean survival time, higher = longer survival
In short: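 Transplantable tumor model; survival measured in treated vs vehicle control mice. Value = treated/control.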

[1] = dose: 100.0 mg/kg/injection, schedule: Q04DX003 (ip), vehicle: saline with Tween-80
[2] = dose: 200.0 mg/kg/injection, schedule: Q04DX003 (ip), vehicle: saline with Tween-80
[3] = dose: 100.0 mg/kg/injection, schedule: Q01DX009 (ip), vehicle: Klucel (hydroxypropylcellulose) (HPC)
[4] = dose: 100.0 mg/kg/injection, schedule: Q04DX003 (ip), vehicle: Klucel (hydroxypropylcellulose) (HPC)
[5] = dose: 200.0 mg/kg/injection, schedule: Q01DX009 (ip), vehicle: Klucel (hydroxypropylcellulose) (HPC)
[6] = dose: 200.0 mg/kg/injection, schedule: Q04DX003 (ip), vehicle: Klucel (hydroxypropylcellulose) (HPC)
[7] = dose: 400.0 mg/kg/injection, schedule: Q01DX009 (ip), vehicle: Klucel (hydroxypropylcellulose) (HPC)
[8] = dose: 400.0 mg/kg/injection, schedule: Q04DX003 (ip), vehicle: Klucel (hydroxypropylcellulose) (HPC)
[9] = dose: 100.0 mg/kg/injection, schedule: Q01DX009 (ip), vehicle: saline with Tween-80
[10] = dose: 200.0 mg/kg/injection, schedule: Q01DX009 (ip), vehicle: saline with Tween-80
[11] = dose: 400.0 mg/kg/injection, schedule: Q01DX009 (ip), vehicle: saline with Tween-80
[12] = dose: 400.0 mg/kg/injection, schedule: Q04DX003 (ip), vehicle: saline with Tween-80
[13] = dose: 75.0 mg/kg/injection, schedule: Q01DX001 (ip), vehicle: saline
[14] = dose: 150.0 mg/kg/injection, schedule: Q01DX001 (ip), vehicle: saline
[15] = dose: 100.0 mg/kg/injection, schedule: Q01DX001 (ip), vehicle: saline with Tween-80
[16] = dose: 200.0 mg/kg/injection, schedule: Q01DX001 (ip), vehicle: saline with Tween-80
[17] = dose: 400.0 mg/kg/injection, schedule: Q01DX001 (ip), vehicle: saline with Tween-80
[18] = dose: 100.0 mg/kg/injection, schedule: Q01DX001 (ip), vehicle: saline
[19] = dose: 200.0 mg/kg/injection, schedule: Q01DX001 (ip), vehicle: saline
[20] = dose: 100.0 mg/kg/injection, schedule: Q04DX002 (ip), vehicle: Klucel (hydroxypropylcellulose) (HPC)
[21] = dose: 200.0 mg/kg/injection, schedule: Q04DX002 (ip), vehicle: Klucel (hydroxypropylcellulose) (HPC)
[22] = dose: 400.0 mg/kg/injection, schedule: Q04DX002 (ip), vehicle: Klucel (hydroxypropylcellulose) (HPC)
[23] = dose: 400.0 mg/kg/injection, schedule: Q01DX001 (ip), vehicle: saline

Measured: T/C

CCOC(=O)C(C(C)=O)C(c1cccc(O)c1)C(C(C)=O)C(=O)O (centres undefined)
inactive: dose: 25.6 mg/kg/injection, schedule: Q04DX002 (ip), vehicle: saline with Tween-80 95 % of control | dose: 37.5 mg/kg/injection, schedule: Q01DX009 (ip), vehicle: saline with Tween-80 100 % of control | dose: 64.0 mg/kg/injection, schedule: Q04DX002 (ip), vehicle: saline with Tween-80 91 % of control | dose: 75.0 mg/kg/injection, schedule: Q01DX009 (ip), vehicle: saline with Tween-80 91 % of control | [1] 90 % of control | dose: 150.0 mg/kg/injection, schedule: Q01DX009 (ip), vehicle: saline with Tween-80 94 % of control | dose: 160.0 mg/kg/injection, schedule: Q04DX002 (ip), vehicle: saline with Tween-80 87 % of control | [2] 90 % of control

O=C(NC1CCC(CC2CCCCC2)CC1)C(Cl)Cl (centres undefined)
inactive: [3] 91 % of control | [4] 93 % of control | [5] 93 % of control | [6] 88 % of control | [7] 91 % of control | [8] 109 % of control

O=S(=O)(O)c1ccc(-c2ccccc2)cc1
inactive: dose: 50.0 mg/kg/injection, schedule: Q01DX009 (ip), vehicle: Klucel (hydroxypropylcellulose) (HPC) 106 % of control | [3] 94 % of control | [4] 89 % of control | [6] 94 % of control

COc1cccc(/C=C/C(=O)c2ccc(Cl)cc2)c1OC
inactive: [9] 101 % of control | [1] 96 % of control | [10] 88 % of control | [2] 91 % of control | [11] 87 % of control | [12] 90 % of control

COC(C)C1C([N+](C)(C)C)CS1(=O)=O (centres undefined)
inactive: [13] 97 % of control | [14] 94 % of control

Nc1nc(N)c(-c2ccc(Cl)c(Cl)c2)c(CCc2ccc(NS(=O)(=O)c3cccc(S(=O)(=O)F)c3)cc2)n1
inactive: [15] 98 % of control | [16] 95 % of control | [17] 87 % of control

COC(=O)C1CCCC23CC(CC12)C(C)(C)C3Br (centres undefined)
inactive: [3] 94 % of control | [4] 97 % of control | [5] 97 % of control | [6] 90 % of control | [7] 90 % of control | [8] 97 % of control

C=C1C(=O)N(C)C(C(=O)OC)CC1C(CC)C(=O)OC (centres undefined)
inactive: dose: 25.0 mg/kg/injection, schedule: Q01DX001 (ip), vehicle: saline 104 % of control | dose: 50.0 mg/kg/injection, schedule: Q01DX001 (ip), vehicle: saline 114 % of control | [18] 95 % of control | [19] 108 % of control

c1ccc2c(c1)C(=NN=C1c3ccccc3-c3ccccc31)c1ccccc1-2
inactive: dose: 100.0 mg/kg/injection, schedule: Q01DX001 (ip), vehicle: carboxymethylcellulose (CMC) 97 % of control | [3] 93 % of control | dose: 200.0 mg/kg/injection, schedule: Q01DX001 (ip), vehicle: carboxymethylcellulose (CMC) 94 % of control | [5] 104 % of control | dose: 400.0 mg/kg/injection, schedule: Q01DX001 (ip), vehicle: carboxymethylcellulose (CMC) 94 % of control | [7] 96 % of control

Nc1ccc(CCCCOc2ccccc2)cc1
inactive: dose: 25.0 mg/kg/injection, schedule: Q01DX001 (ip), vehicle: saline with Tween-80 104 % of control | dose: 50.0 mg/kg/injection, schedule: Q01DX001 (ip), vehicle: saline with Tween-80 95 % of control | [15] 98 % of control and 106 % of control

Cc1cccc(Cl)c1NC(=O)C(Cl)Cl
inactive: [20] 113 % of control | [21] 107 % of control | [22] 110 % of control

O=C(O)c1ccc(CNCc2ccccc2)cc1
inactive: [13] 102 % of control | [14] 96 % of control

Cc1cccc2c(N=Nc3ccccc3[N+](=O)[O-])c(O)[nH]c12
inactive: [18] 101 % of control | [23] 97 % of control

CC(C)C(=O)C(C)(C)C
inactive: [18] 102 % of control | [19] 98 % of control | [23] 107 % of control

CCCCCCCCCCCCCC(CCCCCC)C1CCCCC1 (centres undefined)
inactive: dose: 100.0 mg/kg/injection, schedule: Q01DX001 (ip), vehicle: acetone 100 % of control | dose: 200.0 mg/kg/injection, schedule: Q01DX001 (ip), vehicle: acetone 106 % of control | dose: 400.0 mg/kg/injection, schedule: Q01DX001 (ip), vehicle: acetone 101 % of control

CCCC(O)CC(C)O (centres undefined)
inactive: [18] 97 % of control | [19] 100 % of control | [23] 95 % of control

c1cc(-c2ncc[nH]2)ccn1
inactive: [15] 100 % of control

CC([NH-])C(=O)O.CC([NH-])C(=O)O.[Ni+2] (centres undefined)
inactive: dose: 3.12 mg/kg/injection, schedule: Q01DX009 (ip), vehicle: saline 98 % of control | dose: 6.25 mg/kg/injection, schedule: Q01DX009 (ip), vehicle: saline 101 % of control | dose: 6.25 mg/kg/injection, schedule: Q04DX003 (ip), vehicle: saline 102 % of control | dose: 12.5 mg/kg/injection, schedule: Q01DX009 (ip), vehicle: saline 95 % of control | dose: 12.5 mg/kg/injection, schedule: Q04DX003 (ip), vehicle: saline 98 % of control and 104 % of control | dose: 25.0 mg/kg/injection, schedule: Q04DX003 (ip), vehicle: saline 105 % of control and 109 % of control | dose: 50.0 mg/kg/injection, schedule: Q04DX003 (ip), vehicle: saline 101 % of control

ClCOCCCCOCCl
inactive: dose: 50.0 mg/kg/injection, schedule: Q01DX009 (ip), vehicle: saline 114 % of control | dose: 100.0 mg/kg/injection, schedule: Q01DX009 (ip), vehicle: saline 87 % of control

O=C(c1ccccc1)C(O)(c1ccccc1)C1CCCC/C1=N\N(c1ccccc1)c1ccccc1 (centres undefined)
inactive: [1] 92 % of control | [2] 96 % of control | [12] 94 % of control

CCOC1=CC(=O)C(C)(CC=C(C)C)C(C)C1 (centres undefined)
inactive: dose: 50.0 mg/kg/injection, schedule: Q01DX009 (ip), vehicle: saline with Tween-80 100 % of control | [9] 92 % of control | [10] 96 % of control

c1ccc(-c2nccnc2-c2ccccc2)cc1
inactive: [20] 93 % of control | [21] 107 % of control | [22] 111 % of control

CNC(=O)Nc1ccccc1[N+](=O)[O-]
inactive: [20] 108 % of control | [21] 97 % of control

OC1(c2ccccc2)c2ccccc2C(O)(c2ccccc2)c2c1ccc1ccccc21 (centres undefined)
inactive: [9] 93 % of control | [11] 93 % of control

CCOc1ccc(C2(C)CC(=O)NN2)c(O)c1 (centres undefined)
inactive: [15] 101 % of control | [16] 103 % of control | [17] 98 % of control

C=CCc1ccc(OC(=O)Nc2ccc(Cl)cc2)c(OC)c1
inactive: [20] 115 % of control | [21] 107 % of control | [22] 100 % of control

CCc1ccccc1NC(=O)NC(C)C
inactive: [3] 98 % of control | [4] 90 % of control | [5] 91 % of control | [6] 97 % of control | [7] 95 % of control | [8] 92 % of control
